Key:
Staph. aureus SG 511 = assay: Minimum bacteriostatic inhibitory concentration, Agar dilution method; format: cell-based
Staph. aureus 285 = assay: as above; format: cell-based
Staph. aureus 503 = assay: as above; format: cell-based
Strept. pyogenes 308 A = assay: as above; format: cell-based
Strept. pyogenes 77 A = assay: as above; format: cell-based
Strept. faecium D = assay: as above; format: cell-based
Escherichia coli DC 2 = assay: as above; format: cell-based
Bact. fragilis 312 = assay: as above; format: cell-based
Bact. fragilis 960 = assay: as above; format: cell-based
Bact. fragilis 1313 = assay: as above; format: cell-based
Bact. vulgatus 1446 = assay: as above; format: cell-based
[1] = system: Peptostrept. anaerob. 932; assay: as above; format: cell-based
Propioni acnes 6916 = assay: as above; format: cell-based
Propioni acnes 6922 = assay: as above; format: cell-based
[2] = system: Clostridium tetani ATCC 1940650; details: Agar dilution method
[3] = system: Clostridium perfringens 194; details: Agar dilution method

Molecule	Minimum bacteriostatic inhibitory concentration (Staph. aureus SG 511)	Minimum bacteriostatic inhibitory concentration (Staph. aureus 285)	Minimum bacteriostatic inhibitory concentration (Staph. aureus 503)	Minimum bacteriostatic inhibitory concentration (Strept. pyogenes 308 A)	Minimum bacteriostatic inhibitory concentration (Strept. pyogenes 77 A)	Minimum bacteriostatic inhibitory concentration (Strept. faecium D)	Minimum bacteriostatic inhibitory concentration (Escherichia coli DC 2)	Minimum bacteriostatic inhibitory concentration (Bact. fragilis 312)	Minimum bacteriostatic inhibitory concentration (Bact. fragilis 960)	Minimum bacteriostatic inhibitory concentration (Bact. fragilis 1313)	Minimum bacteriostatic inhibitory concentration (Bact. vulgatus 1446)	Minimum bacteriostatic inhibitory concentration [1]	Minimum bacteriostatic inhibitory concentration (Propioni acnes 6916)	Minimum bacteriostatic inhibitory concentration (Propioni acnes 6922)	Minimum bacteriostatic inhibitory concentration [2]	Minimum bacteriostatic inhibitory concentration [3]
balhimycin V	0.4 micrograms per milliliter	0.4 micrograms per milliliter	0.1 micrograms per milliliter	0.05 micrograms per milliliter	0.05 micrograms per milliliter	0.2 micrograms per milliliter	> 100 micrograms per milliliter									
CNC(CC(C)C)C(=O)NC1C(=O)NC(CC(N)=O)C(=O)NC2C(=O)NC3C(=O)NC(C(=O)NC(C(=O)O)c4cc(O)cc(O)c4-c4cc3ccc4O)C(OC3CC(C)(N)C(=O)C(C)O3)c3ccc(c(Cl)c3)Oc3cc2cc(c3O)Oc2ccc(cc2Cl)C1O (centres unmarked) [Desglucobalhimycin, desglucobalhimycin]	0.2 micrograms per milliliter	0.2 micrograms per milliliter	0.1 micrograms per milliliter	0.1 micrograms per milliliter	0.1 micrograms per milliliter	0.2 micrograms per milliliter	> 100 micrograms per milliliter	25 micrograms per milliliter	25 micrograms per milliliter	25 micrograms per milliliter	> 100 micrograms per milliliter	0.4 micrograms per milliliter	0.2 micrograms per milliliter	0.2 micrograms per milliliter	0.4 micrograms per milliliter	0.1 micrograms per milliliter
CC(C)C[C@H](C(=O)N[C@H]1C(=O)NC(CC(N)=O)C(=O)N[C@H]2C(=O)N[C@H]3C(=O)N[C@H](C(=O)N[C@@H](C(=O)O)c4cc(O)cc(O)c4-c4cc3ccc4O)[C@H](O[C@H]3C[C@](C)(N)C(=O)[C@H](C)O3)c3ccc(c(Cl)c3)Oc3cc2cc(c3O[C@@H]2O[C@H](CO)[C@@H](O)[C@H](O)[C@H]2O)Oc2ccc(cc2Cl)[C@H]1O)N(C)C (some centres unmarked) [Methylbalhimycin, methylbalhimycin]	0.4 micrograms per milliliter	0.4 micrograms per milliliter	0.4 micrograms per milliliter	0.4 micrograms per milliliter	0.4 micrograms per milliliter	0.8 micrograms per milliliter	25 micrograms per milliliter	100 micrograms per milliliter	100 micrograms per milliliter	50 micrograms per milliliter	> 100 micrograms per milliliter	0.8 micrograms per milliliter	0.4 micrograms per milliliter	0.4 micrograms per milliliter	3.1 micrograms per milliliter	1.5 micrograms per milliliter
CNC(CC(C)C)C(=O)NC1C(=O)NC(CC(N)=O)C(=O)NC2C(=O)NC3C(=O)NC(C(=O)NC(C(=O)O)c4cc(O)cc(O)c4-c4cc3ccc4O)C(OC3CC4(C)NC(=O)NC4(O)C(C)O3)c3ccc(c(Cl)c3)Oc3cc2cc(c3OC2OC(CO)C(O)C(O)C2O)Oc2ccc(cc2Cl)C1O (centres unmarked) [Ureidobalhimycin, ureidobalhimycin]	0.8 micrograms per milliliter	1.5 micrograms per milliliter	1.5 micrograms per milliliter	0.8 micrograms per milliliter	0.8 micrograms per milliliter	1.5 micrograms per milliliter	> 100 micrograms per milliliter	25 micrograms per milliliter	25 micrograms per milliliter	25 micrograms per milliliter	50 micrograms per milliliter	6.2 micrograms per milliliter	0.8 micrograms per milliliter	1.5 micrograms per milliliter	12.5 micrograms per milliliter	0.4 micrograms per milliliter
CC(C)CC(N)C(=O)NC1C(=O)NC(CC(N)=O)C(=O)NC2C(=O)NC3C(=O)NC(C(=O)NC(C(=O)O)c4cc(O)cc(O)c4-c4cc3ccc4O)C(OC3CC(C)(N)C(=O)C(C)O3)c3ccc(c(Cl)c3)Oc3cc2cc(c3OC2OC(CO)C(O)C(O)C2O)Oc2ccc(cc2Cl)C1O (centres unmarked) [Desmethylbalhimycin, desmethylbalhimycin]	0.1 micrograms per milliliter	0.1 micrograms per milliliter	0.05 micrograms per milliliter	0.05 micrograms per milliliter	0.05 micrograms per milliliter	0.2 micrograms per milliliter	10 micrograms per milliliter	100 micrograms per milliliter	25 micrograms per milliliter	50 micrograms per milliliter	50 micrograms per milliliter	25 micrograms per milliliter	0.8 micrograms per milliliter	0.4 micrograms per milliliter	50 micrograms per milliliter	0.2 micrograms per milliliter
balhimycin R	0.2 micrograms per milliliter	0.8 micrograms per milliliter	0.2 micrograms per milliliter	0.2 micrograms per milliliter	0.2 micrograms per milliliter	0.4 micrograms per milliliter	50 micrograms per milliliter	> 100 micrograms per milliliter	> 100 micrograms per milliliter	> 100 micrograms per milliliter	> 100 micrograms per milliliter	100 micrograms per milliliter	6.2 micrograms per milliliter	3.1 micrograms per milliliter	100 micrograms per milliliter	
CC(C)CC(N)C(=O)NC1C(=O)NC(CC(N)=O)C(=O)NC2C(=O)NC3C(=O)NC(C(=O)NC(C(=O)O)c4cc(O)cc(O)c4-c4cc3ccc4O)C(OC3CC(C)(N)C(=O)C(C)O3)c3ccc(c(Cl)c3)Oc3cc2cc(c3O)Oc2ccc(cc2Cl)C1O (centres unmarked) [Desmethyl-desglucobalhimycin, desmethyl-desglucobalhimycin]	0.2 micrograms per milliliter	0.2 micrograms per milliliter	0.1 micrograms per milliliter	0.1 micrograms per milliliter	0.1 micrograms per milliliter	0.2 micrograms per milliliter	> 100 micrograms per milliliter	50 micrograms per milliliter	25 micrograms per milliliter	50 micrograms per milliliter	> 100 micrograms per milliliter	0.2 micrograms per milliliter	0.2 micrograms per milliliter	0.1 micrograms per milliliter		0.1 micrograms per milliliter
